From patent US7741352B2, “KCNQ channel modulating compounds and their pharmaceutical use” (Neurosearch A/S, priority 2003, dated 2010)

Molecular target: T1, human KCNQ4 channel (Homo sapiens, UniProt P56696)
T1 construct: expressed in transfected cells
Experiment: Electrophysiological determination: whole-cell patch-clamp of voltage-activated KCNQ current
Type: cell-based
Settings: HEK293 cell line stably expressing human KCNQ4; current at end of step to −30 mV; baseline current defined as 100%; test concentration not given
Description: KCNQ channels constitute a subfamily of the voltage-dependent potassium (K) channels. Five members of this family have been cloned (1-5) and they have been heterologously expressed in various homo- and heteromeric combinations. The ionic current through the channels is recorded in the whole-cell mode of the patch-clamp technique. The KCNQ currents are activated by a depolarising voltage step and it is investigated whether the test compound change the amount of basal current. Compounds that induce an increase in the voltage-activated current are called activators and the effect obtained by these activators is described as a percentage increase in baseline current at a given concentration.
A HEK293 cell line stably expressing the human KCNQ4 channel was obtained as described by Søgaard et al. [Søgaard R, Ljungstrøm T. Pedersen K A, Olesen S-P, Jensen B S: KCNQ4 channels expressed in mammalian cells: Functional characteristics and pharmacology; Am. J. Phys. 2000 280 C859-C866].
Experiments are carried out on a patch-clamp set-up. Cells plated on cover slips (Ø3.5 mm) are placed in a 15 μl perfusion chamber (flow rate ˜1 ml/min) mounted on an IMT-2 or IX-70 microscope equipped with Nomarski or Hoffmann optics. The microscope is placed on a vibration-free table in a grounded Faraday cage. All experiments are performed at room temperature (20-22° C.). The EPC-9 patch-clamp amplifier (HEKA-electronics, Lambrecht, Germany) is connected to a Macintosh computer via an ITC16 interface. Data are stored directly on the hard disk and analysed using IGOR software (Wavemetrics, Lake Oswego, USA).
The whole-cell configuration of the patch clamp technique is applied. In short: The Up of a borosilicate pipette (resistance 24 MΩ) is gently (remote control system) placed on the cell membrane. Light suction results in a giga seal (pipette resistance increases to more than 1 GΩ) and the cell membrane is then ruptured by more powerful suction. Cell capacitance is electronically compensated and the resistance between the pipette and the cell interior (the series resistance, Rs) is measured and compensated for. Usually the cell capacitance ranges from 5 to 20 pF (depending on cell size) and the series resistance is in the range 3 to 6 MΩ. Rs- as well as capacitance compensation are updated during the experiments (before each stimulus). All experiments with drifting Rs-values are discharged. Leak-subtractions are not performed but the leak is estimated by a hyper-polarisation voltage step.
The extracellular (bath) solution contains 144 mM NaCl, 2 mM CaCl2, 1 mM MgCl2, 10 mM HEPES (pH=7.4). […] By use of the program EqCal the concentration of free Ca^2+ have been calculated to 100 nM, the free Mg^2+ is 1 mM, and MgATP is 1.45 mM. […]

| SMILES | IK (%) |
| --- | --- |
| Nc1cccc(-c2ccc(COc3ccc(C(=O)O)c(O)c3)cc2)c1 [Compound 3-11, 4-(3′-Amino-biphenyl-4-ylmethoxy)-2-hydroxy-benzoic acid] | 115% |
| O=C(O)c1ccc(-c2ccc(COc3ccc(C(=O)O)c(O)c3)cc2)cc1 [Compound 3-17, 4′-(4-Carboxy-3-hydroxy-phenoxymethyl)-biphenyl-4-carboxylic acid] | 115% |

Same assay, conditions: HEK293 cell line stably expressing human KCNQ4; whole-cell patch clamp

| SMILES | activator or inhibitor of the KCNQ channel (increase or decrease in current) |
| --- | --- |
| Nc1cccc(-c2ccc(COc3ccc(C(=O)O)c(O)c3)cc2)c1 [Compound 3-11, 4-(3′-Amino-biphenyl-4-ylmethoxy)-2-hydroxy-benzoic acid] | activators |
| O=C(O)c1ccc(-c2ccc(COc3ccc(C(=O)O)c(O)c3)cc2)cc1 [Compound 3-17, 4′-(4-Carboxy-3-hydroxy-phenoxymethyl)-biphenyl-4-carboxylic acid] | activators |

System: not given
Experiment: not given
Settings: not given

| SMILES | melting point |
| --- | --- |
| Nc1cccc(-c2ccc(COc3ccc(C(=O)O)c(O)c3)cc2)c1 [Compound 3-11, 4-(3′-Amino-biphenyl-4-ylmethoxy)-2-hydroxy-benzoic acid] | 207 to 210 °C (dec.) |
| O=C(O)c1ccc(-c2ccc(COc3ccc(C(=O)O)c(O)c3)cc2)cc1 [Compound 3-17, 4′-(4-Carboxy-3-hydroxy-phenoxymethyl)-biphenyl-4-carboxylic acid] | 279 to 284 °C (dec.) |
| O=C(O)c1ccc(OCc2cccc(-c3ccc4ccccc4c3)c2)cc1O [Compound 3-38, 2-Hydroxy-4-(3-naphthalen-2-yl-benzyloxy)-benzoic acid] | 190 to 194 °C (dec.) |
| O=C(O)c1ccc(OCc2cccc(-c3ccc4c(c3)OCCCO4)c2)cc1O [Compound 3-35, 4-[3-(3,4-Dihydro-2H-benzo[b][1,4]dioxepin-7-yl)-benzyloxy]-2-hydroxy-benzoic acid] | 188 to 192 °C (dec.) |
| C=CCCCCCCOc1ccc(C(=O)O)c(O)c1 [Compound 1-10, 2-Hydroxy-4-oct-7-enyloxy-benzoic acid] | 102 to 111 °C |
| O=C(O)c1ccc(OCCCN2CCCCC2)cc1O [Compound 1-21, 2-Hydroxy-4-(3-piperidin-1-yl-propoxy)-benzoic acid] | 194 °C (dec.) |
| O=C(O)c1ccc(OCc2ccc(-c3cccnc3)cc2)cc1O [Compound 3-1, 2-Hydroxy-4-(4-pyridin-3-yl-benzyloxy)-benzoic acid] | 209 to 211 °C (dec.) |
| O=C(O)c1ccc(NCc2cccc([N+](=O)[O-])c2)cc1O [Compound 6-1, 2-Hydroxy-4-(3-nitro-benzylamino)-benzoic acid] | 189 °C (dec.) |
| Cc1noc(C)c1-c1cccc(COc2ccc(C(=O)O)c(O)c2)c1 [Compound 3-40, 4-[3-(3,5-Dimethyl-isoxazol-4-yl)-benzyloxy]-2-hydroxy-benzoic acid] | 155 to 176 °C (dec.) |
| CCCCCCCCOc1ccc(C(N)=O)c(O)c1 [Compound 12-4, 2-Hydroxy-4-octyloxy-benzamide] | 123 to 124 °C |
| N#Cc1cccc(-c2cccc(COc3ccc(C(=O)O)c(O)c3)c2)c1 [Compound 3-41, 4-(3′-Cyano-biphenyl-3-ylmethoxy)-2-hydroxy-benzoic acid] | 155 to 170 °C (dec.) |
| O=C(O)c1ccc(Oc2ccc(-c3ccccc3)cc2[N+](=O)[O-])cc1O [Compound 8-4, 2-Hydroxy-4-(3-nitro-biphenyl-4-yloxy)-benzoic acid] | > 200 °C (dec.) |
| O=C(O)c1ccc(OCc2ccc(-c3cccc([N+](=O)[O-])c3)cc2)cc1O [Compound 3-10, 2-Hydroxy-4-(3′-nitro-biphenyl-4-ylmethoxy)-benzoic acid] | 211 to 214 °C (dec.) |
| O=C(Nc1ccc(OCc2ccc(F)cc2)cc1O)C(F)(F)F [Compound 9-3, 2,2,2-trifluoro-N-[4-(4-fluoro-benzyloxy)-2-hydroxy-phenyl]-acetamide] | 143 to 145 °C |
| COc1cccc(-c2cccc(COc3ccc(C(=O)O)c(O)c3)c2)c1 [Compound 3-22, 2-Hydroxy-4-(3′-methoxy-biphenyl-3-ylmethoxy)-benzoic acid] | 103 to 115 °C (dec.) |
| O=C(O)c1ccc(OCc2ccc(-c3ccccc3)cc2)cc1O [Compound 1-16, 4-(Biphenyl-4-ylmethoxy)-2-hydroxy-benzoic acid] | 216 to 219 °C (dec.) |
| O=C(O)c1ccc(OCc2cccc(-c3cc(Cl)cc(Cl)c3)c2)cc1O [Compound 3-31, 4-(3′,5′-Dichloro-biphenyl-3-ylmethoxy)-2-hydroxy-benzoic acid] | 194 to 197 °C (dec.) |
| O=C(O)c1cccc(-c2cccc(COc3ccc(C(=O)O)c(O)c3)c2)c1 [Compound 3-21, 3′-(4-Carboxy-3-hydroxy-phenoxymethyl)-biphenyl-3-carboxylic acid] | 211 to 227 °C (dec.) |
| O=C(Nc1ccc(C(=O)O)c(O)c1)c1ccc(-c2ccccc2)cc1 [Compound 7-2, 4-[(Biphenyl-4-carbonyl)-amino]-2-hydroxy benzoic acid] | 266 °C (dec.) |
| O=C(O)c1ccc(OCCCCCCCCO)cc1O [Compound 1-9, 2-Hydroxy-4-(8-hydroxy-octyloxy) benzoic acid] | 119 to 121 °C |
| O=C(c1ccccc1)c1ccc(COc2ccc(C(=O)O)c(O)c2)cc1 [Compound 1-20, 4-(4-Benzoyl-benzyloxy)-2-hydroxy benzoic acid] | 198 to 199 °C |
| O=C(O)c1ccc(OCc2cccc(-c3cccnc3)c2)cc1O [Compound 3-27, 2-Hydroxy-4-(3-pyridin-3-yl-benzyloxy)-benzoic acid] | 189 to 195 °C (dec.) |
| CCCCCCCCOc1ccc(NS(C)(=O)=O)c(O)c1 [Compound 9-2, N-(2-hydroxy-4-octyloxy-phenyl)-methanesulfonamide] | 98 to 101 °C |
| O=C(O)c1ccc(OCCCCCCO)cc1O [Compound 1-8, 2-Hydroxy-4-(6-hydroxyhexyloxy) benzoic acid] | 139 °C |
| COc1cc(-c2cccc(COc3ccc(C(=O)O)c(O)c3)c2)ccc1O [Compound 3-26, 2-Hydroxy-4-(4′-hydroxy-3′-methoxy-biphenyl-3-ylmethoxy)-benzoic acid] | 153 to 157 °C (dec.) |
